Results taken from patent US20070259856A1, “Method for Activating Trpv4 Channel Receptors by Agonists” (priority 2004, published 2007).

What was measured:
MMP-3 = experiment: IL-1 induced MMP-3 production in human chondrocytes; assay type: cell-based; details: IL-1 10 ng/mL, 24 hours
Procedure: (§1) Human chondrocytes were exposed to L-1 (10 ng/mL) to induce MMP-3 and MMP-13 production. Increased production of MMP-3 and MMP-13 was verified by both Northern blot (mRNA) and ELISA assay (protein). Cells were exposed to Formula IIb at concentrations ranging from 0.1 μM to 10 μM. […] TRPV4 channel receptor agonist inhibits IL-1-induced MMP-3 and MMP-13 production.

MMP-13 = experiment: IL-1 induced MMP-13 production in human chondrocytes; assay type: cell-based; details: IL-1 10 ng/mL, 24 hours
Procedure: as §1

aggrecanase = experiment: IL-1 induced aggrecanase production, chondrocyte-based aggrecanase peptide cleavage assay; assay type: cell-based, bovine; details: IL-1 3.0 ng/mL; for Aggrecanase Production (Mean ± SEM OD 450 nm): 24 hour
Description: Aggrecanases (ADAMTSs), in conjunction with MMPs, degrade aggrecan, one of the major matrix components in articular cartilage. […] 2003; 48(1): 119-133].

ADAMTS-4 (aggrecanase-1) = target: T1, ADAMTS-4 (aggrecanase-1) (Homo sapiens, UniProt O75173); experiment: Cleavage of the peptide substrate by soluble ADAMTS-4; assay type: biochemical
T1 sequence (O75173 213-837): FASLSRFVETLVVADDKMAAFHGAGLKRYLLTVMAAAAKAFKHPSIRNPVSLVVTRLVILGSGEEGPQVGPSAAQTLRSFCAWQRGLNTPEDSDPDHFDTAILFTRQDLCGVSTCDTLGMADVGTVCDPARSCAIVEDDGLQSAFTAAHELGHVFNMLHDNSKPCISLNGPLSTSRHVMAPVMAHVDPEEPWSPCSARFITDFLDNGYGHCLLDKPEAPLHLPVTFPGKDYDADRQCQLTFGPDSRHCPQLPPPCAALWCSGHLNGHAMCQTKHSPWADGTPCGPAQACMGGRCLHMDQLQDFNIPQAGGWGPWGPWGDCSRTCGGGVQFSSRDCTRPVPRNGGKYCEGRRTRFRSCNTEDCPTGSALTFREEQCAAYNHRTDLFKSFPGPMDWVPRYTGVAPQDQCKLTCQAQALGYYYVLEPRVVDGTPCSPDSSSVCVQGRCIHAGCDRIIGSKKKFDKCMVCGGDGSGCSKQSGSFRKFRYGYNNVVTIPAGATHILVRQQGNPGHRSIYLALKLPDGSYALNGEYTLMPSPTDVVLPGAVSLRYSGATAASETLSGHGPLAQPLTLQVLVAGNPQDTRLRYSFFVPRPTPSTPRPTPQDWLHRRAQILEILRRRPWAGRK

[1] = test system: bovine articular cartilage explants; experiment: IL-1 induced collagen degradation (hydroxyproline) in bovine articular cartilage explants; assay type: cell-based; details: 1 uM, IL-1 50 ng/ml, media from day 14-18
Procedure: IL-1 stimulates collagen degradation in bovine articular cartilage explants after extended (−2-3 weeks) exposure to IL-1. Collagen breakdown was evaluated by measuring the levels of hydroxyproline, a major component of hydrolyzed collagen fibrils, using a colorimetric assay that is understood in the art. Bovine articular cartilage was stimulated with IL-1 for 18 days, in the absence or presence of Formula Ib or Formula IId (both at 1 uM). Media was removed and replaced every 2-4 days with fresh IL-1 and compound through day 18. As has been shown previously, aggrecan degradation precedes collagen breakdown in IL-1-stimulated bovine cartilage explants. Once aggrecan depletion had been achieved by day 10, media were analyzed for collagen breakdown using the hydroxyproline assay.

nitric oxide = experiment: IL-1 induced nitric oxide production, bovine articular chondrocytes in alginate beads (Greiss reaction); assay type: cell-based; details: IL-1 10 ng/mL
Procedure: Nitric oxide (NO) is a free radical that is believed to contribute to the tissue destruction in osteoarthritis. While having direct effects on cartilage matrix damage, NO can also contribute by activating latent proteases which leads to increased tissue destruction. To evaluate the effect of TRPV4 channel receptor agonists on NO production, bovine articular chondrocytes were embedded in alginate beads as described in Hauselmann, et al. (1992) Matrix 12: 116-129, and NO levels were determined in the conditioned media by Greiss reaction (Badger A M, et al. (1998) J. Immunol. 161: 467-473), following stimulation by IL-1, in the absence or presence of TRPV4 channel receptor agonist.

proteoglycan synthesis = experiment: Proteoglycan synthesis ([35S] incorporation), bovine articular chondrocytes in alginate beads; assay type: cell-based; details: IL-1 10 ng/mL
Description: Although cartilage degradation is the hallmark of osteoarthritis, there is also a reduction in the ability of chondrocytes to resynthesize damaged matrix. It has been observed that cytokines, including IL-1, cause a significant reduction in collagen and proteoglycan (PG) synthesis. The effect on matrix synthesis, combined with the stimulation of matrix breakdown by these cytokines, leads to an overall net loss of cartilage matrix. The effects of TRPV4 channel receptor agonists on the synthesis of proteoglycans was measured by [^35S] incorporation in bovine articular chondrocytes embedded in alginate beads. IL-1 caused an inhibition of [^35S] incorporation into large molecular weight proteoglycan monomers, and Formula IIb caused a concentration-dependent reversal of the IL1-mediated inhibition of PG synthesis as shown in Table 10.

In the case of CC(C)C[C@H](NC(=O)c1cc2ccccc2s1)C(=O)N[C@@H]1CCCN(S(=O)(=O)c2ccc(F)cc2)CC1=O [Formula IIb, N-{(1S)-1-[({(4R)-1-[(4-fluorophenyl)sulfonyl]-3-oxohexahydro-1H-azepin-4-yl}amino)carbonyl]-3-methylbutyl}-1-benzothiophene-2-carboxamide], the “MMP-3 mRNA expression Mean” value (MMP-3; 0.1 μM) is reported as 0.92 Fraction of IL-1, the “MMP-3 mRNA expression Mean” value (MMP-3; 0.3 μM) is reported as 0.91 Fraction of IL-1 and the “MMP-3 mRNA expression Mean” value (MMP-3; 1.0 μM) is reported as 0.88 Fraction of IL-1. The “MMP-3 mRNA expression Mean” value (MMP-3; 3.0 μM) was 0.68 Fraction of IL-1, the “MMP-3 mRNA expression Mean” value (MMP-3; 10.00 μM) was 0.43 Fraction of IL-1 and the “MMP-13 mRNA expression Mean” value (MMP-13; 0.1 μM) was 0.89 Fraction of IL-1. The “MMP-13 mRNA expression Mean” value (MMP-13; 0.3 μM) was 0.87 Fraction of IL-1, the “MMP-13 mRNA expression Mean” value (MMP-13; 1.0 μM) was 0.79 Fraction of IL-1 and the “MMP-13 mRNA expression Mean” value (MMP-13; 3.0 μM) was 0.29 Fraction of IL-1. For the same compound, the “MMP-13 mRNA expression Mean” value (MMP-13; 10.00 μM) was 0.09 Fraction of IL-1, the “Aggrecanase Production (Mean ± SEM OD 450 nm)” value (aggrecanase; 0.03 μM) was 2.018 ± 0.044 OD 450 nm and the “Aggrecanase Production (Mean ± SEM OD 450 nm)” value (aggrecanase; 0.10 μM) was 1.669 ± 0.029 OD 450 nm. The “Aggrecanase Production (Mean ± SEM OD 450 nm)” value (aggrecanase; 0.30 μM) was 1.139 ± 0.032 OD 450 nm, the “Aggrecanase Production (Mean ± SEM OD 450 nm)” value (aggrecanase; 1.00 μM) was 0.851 ± 0.024 OD 450 nm and the inhibition at 0.03 µM (aggrecanase; Bos taurus, 0.03 μM) was 11%. The inhibition at 0.1 µM (aggrecanase; Bos taurus, 0.10 μM) was 33%, the inhibition at 0.3 µM (aggrecanase; Bos taurus, 0.30 μM) was 65% and the inhibition at 1 µM (aggrecanase; Bos taurus, 1.00 μM) was 83%. The “effect on cleavage of the peptide substrate by soluble ADAMTS-4” value (ADAMTS-4 (aggrecanase-1)) was “no effect”, the “Hydroxyproline Mean ± SEM” value [1] was 16 ± 6 µg and the inhibition at 1 µM ([1]; Bos taurus, 336 h) was 81%. For the same compound, the “NO levels Mean ± SEM” value (nitric oxide; 0.3 μM) was 17 ± 1 µM, the “NO levels Mean ± SEM” value (nitric oxide; 1.0 μM) was 6 ± 1 µM and the “NO levels Mean ± SEM” value (nitric oxide; 3.0 μM) was 2 ± 0 µM. For the same compound, the inhibition at 0.3 µM (nitric oxide; Bos taurus, Chondrocyte, 0.3 μM, read-out: % inhibition of NO) was 38%, the inhibition at 1 µM (nitric oxide; Bos taurus, Chondrocyte, 1.0 μM, read-out: % inhibition of NO) was 81% and the inhibition at 3 µM (nitric oxide; Bos taurus, Chondrocyte, 3.0 μM, read-out: % inhibition of NO) was 96%. The “% IL-1 reversal” value (proteoglycan synthesis; 0.3 uM) was 3%, the “PG synthesis Mean ± SEM” value (proteoglycan synthesis; 0.3 uM) was 878 ± 48 cpm/bead and the “% IL-1 reversal” value (proteoglycan synthesis; 1.0 uM) was 15%. For the same compound, the “PG synthesis Mean ± SEM” value (proteoglycan synthesis; 1.0 uM) was 1066 ± 69 cpm/bead, the “% IL-1 reversal” value (proteoglycan synthesis; 3.0 uM) was 44% and the “PG synthesis Mean ± SEM” value (proteoglycan synthesis; 3.0 uM) was 1530 ± 73 cpm/bead.
